Reference: patent US10251394B2, “Molecules having pesticidal utility, and intermediates, compositions, and processes, related thereto” (Dow AgroSciences LLC, priority 2016, dated 2019)

Tests used:
Assay type in all cases: in vivo
[1] = tested on: Cabbage Looper (Trichoplusia ni); assay: Bioassay on Cabbage Looper (CL), 128-well diet tray assay; conditions: Cabbage Looper, Table ABC, read-out: CL rating
Procedure, shortened: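 Second-instar larvae, one to five per well, placed on artificial diet surface-treated with 50 μg/cm^2 compound in acetone-water, eight wells per compound. Held 5-7 days at 25° C, 14:10 light-dark; percent mortality per well averaged across wells.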

[2] = tested on: Beet Armyworm (Spodoptera exigua); assay: Bioassay on Beet Armyworm (BAW), 128-well diet tray assay; conditions: Beet Armyworm, Table ABC, read-out: BAW rating
Procedure, shortened: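 Second-instar larvae (one to five per well) placed on artificial diet surface-treated with 50 μg/cm^2 test molecule in 90:10 acetone-water, dried, eight wells per molecule. Held at 25° C, 14:10 light-dark, five to seven days; percent mortality recorded per well and averaged across the eight wells.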

[3] = tested on: Yellow Fever Mosquito (Aedes aegypti); assay: Bioassay on Yellow Fever Mosquito (YFM) larvae, 96-well plate; conditions: Table ABC
Description: Example C: Bioassays on Yellow Fever Mosquito (Aedes Aegypti, AEDSAE) (“YFM”)
Certain molecules disclosed in this document were tested against YFM using procedures described in the following paragraph. In the reporting of the results, the “GPA & YFM Rating Table” was used (See Table Section).
Master plates containing 400 μg of a molecule dissolved in 100 μL of dimethyl sulfoxide (DMSO) (equivalent to a 4000 ppm solution) are used. A master plate of assembled molecules contains 15 μL per well. To this plate, 135 μL of a 90:10 water:acetone mixture is added to each well. A robot (Biomek® NXP Laboratory Automation Workstation) is programmed to dispense 15 μL aspirations from the master plate into an empty 96-well shallow plate (“daughter” plate). There are 6 reps (“daughter” plates) created per master. The created daughter plates are then immediately infested with YFM larvae.
The day before plates are to be treated, mosquito eggs are placed in Millipore water containing liver powder to begin hatching (4 g. into 400 mL). After the daughter plates are created using the robot, they are infested with 220 μL of the liver powder/larval mosquito mixture (about 1 day-old larvae). After plates are infested with mosquito larvae, a non-evaporative lid is used to cover the plate to reduce drying. Plates are held at room temperature for 3 days prior to grading. After 3 days, each well is observed and scored based on mortality. The results are indicated in the table entitled “Table ABC: Biological Results” (See Table Section).

| Compound | pest or weed control at 50 µg/cm2 [1] [%] | pest or weed control at 50 µg/cm2 [2] [%] | YFM rating [3] |
| --- | --- | --- | --- |
| C[C@@H](NC(=O)c1ccc(/C(F)=C/C(c2cc(Br)cc(Br)c2)C(F)(F)F)cc1C(F)(F)F)C(=O)NCC(F)(F)F (stereo partly drawn) [F33, 4-((Z)-3-(3,5-Dibromophenyl)-1,4,4,4-tetrafluorobut-1-en-1-yl)-N—((R)-1-oxo-1-((2,2,2-trifluoroethyl)amino)propan-2-yl)-2-(trifluoromethyl)benzamide] | 50 to 100 | 50 to 100 | A (80-100) |
| O=C(NC1(C(=O)NCC(F)(F)F)CC1)c1ccc(/C(F)=C/C(c2cc(Br)cc(Br)c2)C(F)(F)F)cc1C(F)(F)F (centres unmarked) [F34, (Z)-4-(3-(3,5-dibromophenyl)-1,4,4,4-tetrafluorobut-1-en-1-yl)-N-(1-((2,2,2-trifluoroethyl)carbamoyl)cyclopropyl)-2-(trifluoromethyl)benzamide] | 50 to 100 | 50 to 100 | A (80-100) |
| O=C(CNC(=O)c1ccc(/C(F)=C/C(c2cc(Br)cc(Br)c2)C(F)(F)F)cc1C(F)(F)F)NCC(F)(F)F (centres unmarked) [F35, (Z)-4-(3-(3,5-Dibromophenyl)-1,4,4,4-tetrafluorobut-1-en-1-yl)-N-(2-oxo-2-((2,2,2-trifluoroethyl)amino)ethyl)-2-(trifluoromethyl)benzamide] | 50 to 100 | 50 to 100 | A (80-100) |
| C[C@@H](NC(=O)c1ccc(/C(F)=C/C(c2cc(Cl)c(F)c(Cl)c2)C(F)(F)F)cc1C(F)(F)F)C(=O)NCC(F)(F)F (stereo partly drawn) [F36, 4-((Z)-3-(3,5-Dichloro-4-fluorophenyl)-1,4,4,4-tetrafluorobut-1-en-1-yl)-N—((R)-1-oxo-1-((2,2,2-trifluoroethyl)amino)propan-2-yl)-2-(trifluoromethyl)benzamide] | 50 to 100 | 50 to 100 | A (80-100) |
| O=C(NC1(C(=O)NCC(F)(F)F)CC1)c1ccc(/C(F)=C/C(c2cc(Cl)c(F)c(Cl)c2)C(F)(F)F)cc1C(F)(F)F (centres unmarked) [F37, (Z)-4-(3-(3,5-Dichloro-4-fluorophenyl)-1,4,4,4-tetrafluorobut-1-en-1-yl)-N-(1-((2,2,2-trifluoroethyl)carbamoyl)cyclopropyl)-2-(trifluoromethyl)benzamide] | 50 to 100 | 50 to 100 | A (80-100) |
| O=C(CNC(=O)c1ccc(/C(F)=C/C(c2cc(Cl)c(F)c(Cl)c2)C(F)(F)F)cc1C(F)(F)F)NCC(F)(F)F (centres unmarked) [F38, (Z)-4-(3-(3,5-Dichloro-4-fluorophenyl)-1,4,4,4-tetrafluorobut-1-en-1-yl)-N-(2-oxo-2-((2,2,2-trifluoroethyl)amino)ethyl)-2-(trifluoromethyl)benzamide] | 50 to 100 | 50 to 100 | A (80-100) |
| O=C(NC1(C(=O)NCC(F)(F)F)CC1)c1ccc(/C(F)=C/C(c2cc(Cl)cc(Cl)c2)C(F)(F)F)cc1C(F)(F)F (centres unmarked) [F39, (Z)-4-(3-(3,5-Dichlorophenyl)-1,4,4,4-tetrafluorobut-1-en-1-yl)-N-(1-((2,2,2-trifluoroethyl)carbamoyl)cyclopropyl)-2-(trifluoromethyl)benzamide] | 50 to 100 | 50 to 100 | A (80-100) |
| O=C(CNC(=O)c1ccc(/C(F)=C/C(c2cc(Cl)cc(Cl)c2)C(F)(F)F)cc1C(F)(F)F)NCC(F)(F)F (centres unmarked) [F40, (Z)-4-(3-(3,5-Dichlorophenyl)-1,4,4,4-tetrafluorobut-1-en-1-yl)-N-(2-oxo-2-((2,2,2-trifluoroethyl)amino)ethyl)-2-(trifluoromethyl)benzamide] | 50 to 100 | 50 to 100 | A (80-100) |
| CN(CC(F)(F)F)C(=O)C1(NC(=O)c2ccc(/C(F)=C/C(c3cc(Cl)cc(Cl)c3)C(F)(F)F)cc2C(F)(F)F)CC1 (centres unmarked) [F133, (Z)-4-(3-(3,5-Dichlorophenyl)-1,4,4,4-tetrafluorobut-1-en-1-yl)-N-(1-(methyl(2,2,2-trifluoroethyl)carbamoyl)cyclopropyl)-2-(trifluoromethyl)benzamide] |  |  | B (More than 0-Less than 80) |
| Cc1cc(C(/C=C(\F)c2ccc(C(=O)NC3(C(=O)N(C)CC(F)(F)F)CC3)c(C(F)(F)F)c2)C(F)(F)F)cc(C)c1Cl (centres unmarked) [F134, (Z)-4-(3-(4-Chloro-3,5-dimethylphenyl)-1,4,4,4-tetrafluorobut-1-en-1-yl)-N-(1-(methyl(2,2,2-trifluoroethyl)carbamoyl)cyclopropyl)-2-(trifluoromethyl)benzamide] |  |  | B (More than 0-Less than 80) |
| CN(CC(F)(F)F)C(=O)C1(NC(=O)c2ccc(/C(F)=C/C(c3ccc(Cl)c(Cl)c3)C(F)(F)F)cc2C(F)(F)F)CC1 (centres unmarked) [F135, (Z)-4-(3-(3,4-Dichlorophenyl)-1,4,4,4-tetrafluorobut-1-en-1-yl)-N-(1-(methyl(2,2,2-trifluoroethyl)carbamoyl)cyclopropyl)-2-(trifluoromethyl)benzamide] |  |  | B (More than 0-Less than 80) |
| C[C@@H](NC(=O)c1ccc(/C(F)=C/C(c2cc(Cl)cc(Cl)c2)C(F)(F)F)cc1C(F)(F)F)C(=O)NCC(F)(F)F (stereo partly drawn) [F144, 4-((Z)-3-(3,5-Dichlorophenyl)-1,4,4,4-tetrafluorobut-1-en-1-yl)-N—((R)-1-oxo-1-((2,2,2-trifluoroethyl)amino)propan-2-yl)-2-(trifluoromethyl)benzamide] |  |  | A (80-100) |
| Cc1cc(C(/C=C(\F)c2ccc(C(=O)N[C@H](C)C(=O)N(C)CC(F)(F)F)c(C(F)(F)F)c2)C(F)(F)F)ccc1Cl (stereo partly drawn) [PF49, 4-((Z)-3-(4-Chloro-3-methylphenyl)-1,4,4,4-tetrafluorobut-1-en-1-yl)-N—((R)-1-(methyl(2,2,2-trifluoroethyl)amino)-1-oxopropan-2-yl)-2-(trifluoromethyl)benzamide] | 50 to 100 | 50 to 100 |  |
| Cc1cc(C(/C=C(\F)c2ccc(C(=O)NC3(C(=O)NCC(F)(F)F)CC3)c(C(F)(F)F)c2)C(F)(F)F)ccc1Cl (centres unmarked) [PF50, (Z)-4-(3-(4-Chloro-3-methylphenyl)-1,4,4,4-tetrafluorobut-1-en-1-yl)-N-(1-((2,2,2-trifluoroethyl)carbamoyl)cyclopropyl)-2-(trifluoromethyl)benzamide] | 50 to 100 | 50 to 100 |  |
| Cc1cc(C(/C=C(\F)c2ccc(C(=O)NC3(C(=O)N(C)CC(F)(F)F)CC3)c(C(F)(F)F)c2)C(F)(F)F)ccc1Cl (centres unmarked) [PF51, (Z)-4-(3-(4-Chloro-3-methylphenyl)-1,4,4,4-tetrafluorobut-1-en-1-yl)-N-(1-(methyl(2,2,2-trifluoroethyl)carbamoyl)cyclopropyl)-2-(trifluoromethyl)benzamide] | 50 to 100 | 50 to 100 |  |
| C[C@@H](NC(=O)c1ccc(/C(F)=C/C(c2cc(Cl)c(Cl)c(Cl)c2)C(C)(F)F)cc1Cl)C(=O)NCC(F)(F)F (stereo partly drawn) [PF60, 2-Chloro-N—((R)-1-oxo-1-((2,2,2-trifluoroethyl)amino)propan-2-yl)-4-((Z)-1,4,4-trifluoro-3-(3,4,5-trichlorophenyl)pent-1-en-1-yl)benzamide] | 50 to 100 | 50 to 100 |  |
| CC(F)(F)C(/C=C(\F)c1ccc(C(=O)NC2(C(=O)NCC(F)(F)F)CC2)c(Cl)c1)c1cc(Cl)c(Cl)c(Cl)c1 (centres unmarked) [PF62, (Z)-2-Chloro-4-(1,4,4-trifluoro-3-(3,4,5-trichlorophenyl)pent-1-en-1-yl)-N-(1-((2,2,2-trifluoroethyl)carbamoyl)cyclopropyl)benzamide] | 50 to 100 | 50 to 100 |  |
| F/C(=C\C(c1cc(Cl)c(Cl)c(Cl)c1)C(F)(F)F)c1ccc(C(=S)NCC(=S)NCC(F)(F)F)c(C(F)(F)F)c1 (centres unmarked) [PF88, (Z)-4-(1,4,4,4-tetrafluoro-3-(3,4,5-trichlorophenyl)but-1-en-1-yl)-N-(2-thioxo-2-((2,2,2-trifluoroethyl)amino)ethyl)-2-(trifluoromethyl)benzothioamide] | 50 to 100 | 50 to 100 |  |
| C[C@@H](NC(=O)c1ccc(/C(F)=C/C(c2cc(Cl)c(Cl)c(Cl)c2)C(F)(F)F)cc1C(F)(F)F)C(=S)NCC(F)(F)F (stereo partly drawn) [PF96, 4-((2)-1,4,4,4-Tetrafluoro-3-(3,4,5-trichlorophenyl)but-1-en-1-yl)-N—((R)-1-thioxo-1-((2,2,2-trifluoroethyl)amino)propan-2-yl)-2-(trifluoromethyl)benzamide] | 50 to 100 | 50 to 100 |  |
| O=C(NC1(C(=S)NCC(F)(F)F)CC1)c1ccc(/C(F)=C/C(c2cc(Cl)c(Cl)c(Cl)c2)C(F)(F)F)cc1C(F)(F)F (centres unmarked) [PF98, (Z)-4-(1,4,4,4-Tetrafluoro-3-(3,4,5-trichlorophenyl)but-1-en-1-yl)-N-(1-((2,2,2-trifluoroethyl)carbamothioyl)cyclopropyl)-2-(trifluoromethyl)benzamide] | 50 to 100 | 50 to 100 |  |
